Source: US20060094764A1, “Cyanothiophenes, their preparation and their use in pharmaceutical compositions” (Boehringer Ingelheim International GmbH, priority 2004, published 2006)
Counter-ions that a name gives are not always drawn.

| Structure (SMILES) | melting point |
| --- | --- |
| Cc1ccc(C)c(-c2sc(NC(=O)[C@H]3C[C@@H]4CC[C@H]3C4)c(C#N)c2C(F)(F)F)c1 | 242 °C |
| Cc1ccc(C)c(-c2sc(NC(=O)[C@@H]3C[C@@H]4CC[C@H]3C4)c(C#N)c2Cl)c1 | 117 to 119 °C |
| N#Cc1c(NC(=O)C2CCCCC2)sc(-c2ccccc2)c1Cl | 175 to 180 °C |
| N#Cc1c(NC(=O)C2CCCCC2)sc(-c2ccccc2)c1Br | 167 to 168 °C |
| N#Cc1c(NC(=O)C2CCCCC2)sc(-c2ccccc2)c1C#N | 208 to 212 °C |
| N#Cc1c(NC(=O)C2CCCCC2)sc(-c2ccccc2)c1[N+](=O)[O-] | 213 to 214 °C |
| CCCc1sc(NC(=O)C2CCCCC2)c(C#N)c1OC | 146 to 147 °C |
| Cc1ccc(C)c(-c2sc(NC(=O)[C@H]3C[C@H]4C=C[C@@H]3C4)c(C#N)c2C(F)(F)F)c1 | 209 to 211 °C |
| Cc1ccc(C)c(-c2sc(NC(=O)[C@H]3C[C@H]4CC[C@@H]3C4)c(C#N)c2C(F)(F)F)c1 | 230 °C |
| Cc1ccc(C)c(-c2sc(NC(=O)[C@@H]3C[C@H]4C=C[C@@H]3C4)c(C#N)c2C(F)(F)F)c1 | 226 to 227 °C |
| Cc1ccc(C)c(-c2sc(NC(=O)[C@@H]3C[C@H]4CC[C@@H]3C4)c(C#N)c2C(F)(F)F)c1 | 239 to 240 °C |
| Cc1ccc(C)c(-c2sc(NC(=O)[C@@H]3C[C@@H]4C=C[C@H]3C4)c(C#N)c2C(F)(F)F)c1 | 213 to 214 °C |
| Cc1ccc(C)c(-c2sc(NC(=O)[C@@H]3C[C@@H]4CC[C@H]3C4)c(C#N)c2C(F)(F)F)c1 | 231 to 233 °C |
| Cc1ccc(C)c(C2SC(NC(=O)C3CC4CCC3CC4)=C(C#N)C2(Cl)C(F)(F)F)c1 (stereo not shown) | 242 to 244 °C |
| Cc1ccc(C)c(-c2cc(C#N)c(NC(=O)[C@@H]3C[C@@H]4CC[C@H]3C4)s2)c1 | 168 to 169 °C |
| Cc1ccc(N(C)CCCc2sc(NC(=O)[C@@H]3C[C@@H]4CC[C@H]3C4)c(C#N)c2C)cc1 (as salt: hydrochloride) | 116 to 129 °C (dec.) |
| Cc1ccc(N(C)CCCc2sc(NC(=O)C3CC4CCC3CC4)c(C#N)c2C)cc1 (stereo not shown) (as salt: hydrochloride) | 133 to 140 °C |
| Cc1c(CCCN(C)c2ccccn2)sc(NC(=O)C2CC3CCC2CC3)c1C#N (stereo not shown) (as salt: hydrochloride) | > 80 °C (dec.) |
| Cc1ccc(C)c(-c2sc(NC(=O)[C@@H]3C[C@H]4CC[C@@H]3CC4)c(C#N)c2Cl)c1 (stereo in doubt) | 208 to 210 °C |
